Assay results: the supplement of paper PMC13380429

Key:
Details in all cases: 72 h
Caco-2 [1] = test: cell viability relative to DMSO; higher = less toxic
Calu-3 [2] = test: as above
HepG2 [3] = test: as above
U2OS [4] = test: as above
Vero E6 [5] = test: as above
Caco-2 [6] = test: relative viability EC50 (midpoint between 100% and the lowest measured viability); higher = less toxic
Calu-3 [7] = test: as above
HepG2 [8] = test: as above
U2OS [9] = test: as above
Vero E6 [10] = test: as above
Caco-2 [11] = test: drug sensitivity score (DSS) for viability; higher = more toxic; extreme values may be limits of the assay
Calu-3 [12] = test: as above
HepG2 [13] = test: as above
U2OS [14] = test: as above
Vero E6 [15] = test: as above

Row | SMILES | cell viability (Caco-2 [1]; 1 nM) [%] | cell viability (Caco-2 [1]; 10 nM) [%] | cell viability (Caco-2 [1]; 100 nM) [%] | cell viability (Caco-2 [1]; 1000 nM) [%] | cell viability (Caco-2 [1]; 10000 nM) [%] | cell viability (Calu-3 [2]; 1 nM) [%] | cell viability (Calu-3 [2]; 10 nM) [%] | cell viability (Calu-3 [2]; 100 nM) [%] | cell viability (Calu-3 [2]; 1000 nM) [%] | cell viability (Calu-3 [2]; 10000 nM) [%] | cell viability (HepG2 [3]; 1 nM) [%] | cell viability (HepG2 [3]; 10 nM) [%] | cell viability (HepG2 [3]; 100 nM) [%] | cell viability (HepG2 [3]; 1000 nM) [%] | cell viability (HepG2 [3]; 10000 nM) [%] | cell viability (U2OS [4]; 1 nM) [%] | cell viability (U2OS [4]; 10 nM) [%] | cell viability (U2OS [4]; 100 nM) [%] | cell viability (U2OS [4]; 1000 nM) [%] | cell viability (U2OS [4]; 10000 nM) [%] | cell viability (Vero E6 [5]; 1 nM) [%] | cell viability (Vero E6 [5]; 10 nM) [%] | cell viability (Vero E6 [5]; 100 nM) [%] | cell viability (Vero E6 [5]; 1000 nM) [%] | cell viability (Vero E6 [5]; 10000 nM) [%] | relative viability EC50 (Caco-2 [6]) [µM] | relative viability EC50 (Calu-3 [7]) [µM] | relative viability EC50 (HepG2 [8]) [µM] | relative viability EC50 (U2OS [9]) [µM] | relative viability EC50 (Vero E6 [10]) [µM] | drug sensitivity score (Caco-2 [11]) | drug sensitivity score (Calu-3 [12]) | drug sensitivity score (HepG2 [13]) | drug sensitivity score (U2OS [14]) | drug sensitivity score (Vero E6 [15])
1 | O=C(NCCNCC(O)COc1ccc(O)cc1)N1CCOCC1 (stereo not given) [xamoterol] | 95.8 | 96.7 | 99.9 | 90.3 | 99.5 | 106 | 104 | 110 | 100 | 93.6 | 99.1 | 99.4 | 96.2 | 102 | 102 | 99.7 | 91.3 | 96.5 | 99.1 | 101 | 93.8 | 98.5 | 98 | 98.5 | 95.7 | > 10 | > 10 | > 10 | > 10 | > 10 | 0 | 0 | 0 | 0 | 0
2 | Cc1ncc(-c2csc(N=C(N)N)n2)[nH]1 [zaltidine] | 101 | 99 | 92.3 | 92.5 | 109 | 108 | 96 | 99.2 | 103 | 103 | 105 | 105 | 101 | 94.5 | 107 | 104 | 97.9 | 97.8 | 104 | 106 | 99.6 | 92.6 | 87.3 | 94.2 | 107 | > 10 | > 10 | > 10 | > 10 | > 10 | 0 | 0 | 0 | 0 | 0
3 | CC(c1cc2ccccc2s1)N(O)C(N)=O (stereo not given) [zileuton] | 93.7 | 96.3 | 93.3 | 100 | 91 | 89.5 | 90.6 | 102 | 96.1 | 94.6 | 109 | 95.1 | 101 | 94.2 | 102 | 97.1 | 98.7 | 96.9 | 102 | 96.4 | 103 | 105 | 107 | 101 | 99.7 | > 10 | > 10 | > 10 | > 10 | > 10 | 0 | 0 | 0 | 0 | 0
